Assay results reported in patent publication US20260317272A1, “USE OF STROBILURIN TYPE COMPOUNDS FOR COMBATING PHYTOPATHOGENIC FUNGI CONTAINING AN AMINO ACID SUBSTITION F129L IN THE MITOCHONDRIAL CYTOCHROME B PROTEIN CONFERRING RESISTANCE TO QO INHIBITORS XVI” (priority 2023, published 2026).

Experiments:
Pyrenophora teres = experiment: Use Example 12: control of net blotch on barley (PYRNTE P4); type: in vivo, Pyrenophora (syn. Drechslera) teres; details: F129L strain, inoculated seven days later, 16 ppm, untreated 80%
Procedure: (§1) The compound was dissolved in a mixture of acetone and/or dimethylsulfoxide and the wetting agent/emulsifier Wettol, which is based on ethoxylated alkylphenoles, in a ratio (volume) solvent-emulsifier of 99 to 1 to give a total volume of 5 ml. Subsequently, water was added to total volume of 100 ml. This stock solution was then diluted with the described solvent-emulsifier-water mixture to the final concentration given in the tables below.
Use Example 12. Control of Net Blotch on Barley Caused by Pyrenophora teres (PYRNTE P4)
The first fully developed leaves of potted barley plants were sprayed to run-off previously described spray solution, containing the concentration of active ingredient or their mixture mentioned in the table below. Seven days later the treated plants were inoculated with an aqueous spore suspension of Pyrenophora (syn. Drechslera) teres. The strain used contains the amino acid substitution F129L in the mitochondrial cytochrome b protein conferring resistance to Qo inhibitors. After up to 19 days of cultivation at 20-24° C. and a relative humidity close to 70%, the extent of fungal attack on the leaves was visually assessed as % diseased leaf area.

Puccinia sorghi = experiment: Use Example 8: protective control of corn rust on corn (PUCCSO P1); type: in vivo; details: 16 ppm, untreated 80%
Procedure: as §1
Use Example 8. Protective Control of Corn Rust on Corn Caused by Puccinia sorghi (PUCCSO P1)
The primary leaves of potted corn seedling were sprayed to run-off with previously described spray solution, containing the concentration of active ingredient or their mixture as described below. One day later the plants were dusted with before harvested spores of Puccinia sorghi. To ensure the success of the artificial inoculation, the plants were transferred to a humid chamber without light and a relative humidity of […] and 20 to 24° C. and were there incubated for about fourteen days. The extent of fungal attack on the primary leaves was visually assessed as % diseased leaf area.

Sclerotinia sclerotiorum = experiment: Use Example 13: preventative fungicidal control of white mold on soy beans (SCLESC P1 mycelium); type: in vivo; details: 63 ppm, untreated 85%
Procedure: as §1
Use Example 13. Preventative Fungicidal Control of White Mold on Soy Beans Caused by Sclerotinia sclerotiorum (SCLESC P1 Mycelium)
Young seedlings of soy beans were grown in pots. These plants were sprayed to run-off with previously described spray solution, containing the concentration of active ingredient or mixture mentioned in the table below. The next day the treated plants were inoculated with a biomalt suspension, containing the mycelium of Sclerotinia sclerotiorum. Then the trial plants were cultivated for 6 days in a greenhouse chamber at 23° C. and a relative humidity between 80 and 85%. The extent of fungal attack on the leaves was visually assessed as % diseased leaf area.

| SMILES | Diseased leaf area (%) (Pyrenophora teres) | Diseased leaf area (%) (Puccinia sorghi) | Diseased leaf area (%) (Sclerotinia sclerotiorum) |
| --- | --- | --- | --- |
| CO/C=C(/C(=O)OC)c1cccc(C)c1CO/N=C(\COC)c1c(F)cc(F)cc1F [Compound 4, methyl (E)-3-methoxy-2-[2-[[(Z)-[2-methoxy-1-(2,4,6-trifluorophenyl)ethylidene]amino]oxymethyl]-3-methyl-phenyl]prop-2-enoate] | 4 | – | – |
| CNC(=O)/C(=N/OC)c1cccc(C)c1CO/N=C(\COC)c1ccc(F)c(F)c1 [Compound 5, (2E)-2-[2-[[(Z)-[1-(3,4-difluorophenyl)-2-methoxy-ethylidene]amino]oxymethyl]-3-methylphenyl]-2-methoxyimino-N-methyl-acetamide] | 4 | 0 | – |
| COC/C(=N\OCc1c(C)cccc1/C(=N\OC)C(=O)OC)c1c(F)cc(F)cc1F [Compound 2, methyl (2E)-2-methoxyimino-2-[2-[[(Z)-[2-methoxy-1-(2,4,6-trifluorophenyl)ethylidene]amino]oxymethyl]-3-methyl-phenyl]acetate] | 13 | – | – |
| CNC(=O)/C(=N/OC)c1cccc(C)c1CO/N=C(\COC)c1c(F)cc(OC)cc1F [Compound 7, (2E)-2-[2-[[(Z)-[1-(2,6-difluoro-4-methoxy-phenyl)-2-methoxy-ethylidene]amino]oxymethyl]-3-methyl-phenyl]-2-methoxyimino-N-methyl-acetamide] | 6 | 12 | 4 |
| CNC(=O)/C(=N/OC)c1cccc(C)c1CO/N=C(\COC)c1c(F)cc(F)cc1F [Compound 1, (2E)-2-methoxyimino-2-[2-[[(Z)-[2-methoxy-1-(2,4,6-trifluorophenyl)ethylidene]amino]oxymethyl]-3-methyl-phenyl]-N-methyl-acetamide] | 10 | – | – |
